# Results from ChEMBL document CHEMBL4020836, “Discovery of 7-Oxo-2,4,5,7-tetrahydro-6 H-pyrazolo[3,4- c]pyridine Derivatives as Potent, Orally Available, and Brain-Penetrating Receptor Interacting Protein 1 (RIP1) Kinase Inhibitors: Analysis of Structure-Kinetic Relationships” (J Med Chem, 2018).
# How the values were obtained:
# [1] = Metabolic stability in human liver microsomes; format: ADME, microsome; conditions: read-out: Stability
# [2] = Metabolic stability in mouse liver microsomes; format: ADME, microsome; conditions: read-out: Stability
microsomal CLint [1] [µL/min/mg],microsomal CLint [2] [µL/min/mg],SMILES
13,< 1,CNC(=O)c1ccc2c(c1)OC[C@H](N1CCc3c(nn(Cc4ccccc4)c3Cl)C1=O)C(=O)N2C
101,100,CN1C(=O)[C@@H](N2CCc3c(nn(Cc4ccccc4)c3Cl)C2=O)COc2ccccc21
